What was measured:
[1] = biological target: AP2-associated protein kinase 1 (Homo sapiens) (UniProt Q2M2I8); assay: Binding affinity to human wild-type AAK1 (G25 to L333 residues) expressed in bacterial expression system assessed as residual binding level at 10 uM by Kinomescan method relative to control
[2] = biological target: 5'-AMP-activated protein kinase catalytic subunit alpha-2 (Homo sapiens) (UniProt P54646); assay: Binding affinity to wild-type human partial length AMPK alpha2 (M1 to E306 residues) expressed in bacterial expression system assessed as residual binding level at 10 uM by Kinomescan method relative to control
Sequence of 5'-AMP-activated protein kinase catalytic subunit alpha-2 (Homo sapiens) (P54646 whole entry, looked up, the tested form may be a part): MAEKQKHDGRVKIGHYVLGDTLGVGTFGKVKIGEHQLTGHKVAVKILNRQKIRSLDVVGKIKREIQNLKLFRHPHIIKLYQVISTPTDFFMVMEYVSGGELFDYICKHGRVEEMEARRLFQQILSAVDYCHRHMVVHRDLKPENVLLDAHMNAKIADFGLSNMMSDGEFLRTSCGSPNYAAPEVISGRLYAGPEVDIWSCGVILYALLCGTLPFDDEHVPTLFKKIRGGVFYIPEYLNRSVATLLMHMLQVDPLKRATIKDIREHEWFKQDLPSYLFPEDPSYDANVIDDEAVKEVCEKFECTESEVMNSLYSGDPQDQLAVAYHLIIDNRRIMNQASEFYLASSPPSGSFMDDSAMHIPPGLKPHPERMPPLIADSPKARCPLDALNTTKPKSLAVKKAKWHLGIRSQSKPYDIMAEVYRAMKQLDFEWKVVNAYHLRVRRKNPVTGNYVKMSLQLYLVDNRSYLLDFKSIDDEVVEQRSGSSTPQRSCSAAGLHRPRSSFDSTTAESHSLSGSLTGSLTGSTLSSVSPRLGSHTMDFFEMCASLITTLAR

[3] = biological target: Cyclin-dependent kinase 7 (Homo sapiens) (UniProt P50613); assay: Binding affinity to wild-type human full length CDK7 (M1 to L344 residues) expressed in mammalian expression system assessed as residual binding level at 10 uM by Kinomescan method relative to control
Sequence of Cyclin-dependent kinase 7 (Homo sapiens) (P50613 whole entry, the tested form may be a part): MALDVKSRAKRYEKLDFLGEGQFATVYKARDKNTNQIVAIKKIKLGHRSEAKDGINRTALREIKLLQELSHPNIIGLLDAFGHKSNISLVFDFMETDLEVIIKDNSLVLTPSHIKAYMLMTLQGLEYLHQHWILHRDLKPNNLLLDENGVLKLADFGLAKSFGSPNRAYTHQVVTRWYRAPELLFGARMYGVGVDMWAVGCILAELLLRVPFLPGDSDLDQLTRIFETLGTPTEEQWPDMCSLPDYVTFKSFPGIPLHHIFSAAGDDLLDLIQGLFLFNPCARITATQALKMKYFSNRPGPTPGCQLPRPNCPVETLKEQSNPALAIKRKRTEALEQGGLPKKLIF

[4] = biological target: Cyclin-dependent kinase-like 1 (Homo sapiens) (UniProt Q00532); assay: Binding affinity to wild-type human full length CDKL1 (M1 to I358 residues) expressed in mammalian expression system assessed as residual binding level at 10 uM by Kinomescan method relative to control
Sequence of Cyclin-dependent kinase-like 1 (Homo sapiens) (Q00532 whole entry, the tested form may be a part): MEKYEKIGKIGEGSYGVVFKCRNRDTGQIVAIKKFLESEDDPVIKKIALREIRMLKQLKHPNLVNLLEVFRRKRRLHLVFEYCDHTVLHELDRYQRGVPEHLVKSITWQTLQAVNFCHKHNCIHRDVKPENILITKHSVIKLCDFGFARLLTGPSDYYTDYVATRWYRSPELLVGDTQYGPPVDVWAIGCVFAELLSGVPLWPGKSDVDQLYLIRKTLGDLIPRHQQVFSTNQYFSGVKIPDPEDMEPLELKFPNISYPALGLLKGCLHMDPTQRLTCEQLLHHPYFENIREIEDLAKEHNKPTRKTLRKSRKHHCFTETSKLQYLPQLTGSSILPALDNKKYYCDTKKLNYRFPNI

[5] = biological target: Receptor tyrosine-protein kinase erbB-4 (Homo sapiens) (UniProt Q15303); assay: Binding affinity to wild-type human partial length ERBB4 (L690 to K994 residues) expressed in bacterial expression system assessed as residual binding level at 10 uM by Kinomescan method relative to control
[6] = biological target: Fibroblast growth factor receptor 4 (Homo sapiens) (UniProt P22455); assay: Binding affinity to wild-type human partial length FGFR4 (G402 to E713 residues) expressed in bacterial expression system assessed as residual binding level at 10 uM by Kinomescan method relative to control
Sequence of Fibroblast growth factor receptor 4 (Homo sapiens) (P22455 22-802 limits assumed): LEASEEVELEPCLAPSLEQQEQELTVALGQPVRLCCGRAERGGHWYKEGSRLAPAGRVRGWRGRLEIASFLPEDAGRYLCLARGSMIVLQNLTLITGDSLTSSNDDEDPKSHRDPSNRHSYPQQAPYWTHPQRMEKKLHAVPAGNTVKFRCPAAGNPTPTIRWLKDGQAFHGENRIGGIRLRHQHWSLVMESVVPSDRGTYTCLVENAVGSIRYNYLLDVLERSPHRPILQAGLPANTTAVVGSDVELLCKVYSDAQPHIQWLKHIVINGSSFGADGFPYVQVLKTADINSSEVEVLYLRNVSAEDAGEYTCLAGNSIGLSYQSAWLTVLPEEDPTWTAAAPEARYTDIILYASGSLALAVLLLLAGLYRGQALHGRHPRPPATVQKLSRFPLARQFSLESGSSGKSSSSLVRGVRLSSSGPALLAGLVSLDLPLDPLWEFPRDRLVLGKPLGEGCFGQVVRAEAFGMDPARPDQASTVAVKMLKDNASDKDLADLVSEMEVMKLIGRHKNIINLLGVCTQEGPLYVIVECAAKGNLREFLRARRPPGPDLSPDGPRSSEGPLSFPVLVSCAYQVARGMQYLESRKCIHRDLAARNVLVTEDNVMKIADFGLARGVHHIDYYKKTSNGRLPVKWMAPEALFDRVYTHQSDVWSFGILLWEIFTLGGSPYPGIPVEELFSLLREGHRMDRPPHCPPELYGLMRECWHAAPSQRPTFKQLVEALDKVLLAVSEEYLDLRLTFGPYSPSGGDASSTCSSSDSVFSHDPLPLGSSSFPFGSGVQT

[7] = biological target: G protein-coupled receptor kinase 3 (Homo sapiens) (UniProt P35626); assay: Binding affinity to wild-type human full length GRK3 (M1 to L688 residues) expressed in mammalian expression system assessed as residual binding level at 10 uM by Kinomescan method relative to control
Sequence of G protein-coupled receptor kinase 3 (Homo sapiens) (P35626 whole entry, the tested form may be a part): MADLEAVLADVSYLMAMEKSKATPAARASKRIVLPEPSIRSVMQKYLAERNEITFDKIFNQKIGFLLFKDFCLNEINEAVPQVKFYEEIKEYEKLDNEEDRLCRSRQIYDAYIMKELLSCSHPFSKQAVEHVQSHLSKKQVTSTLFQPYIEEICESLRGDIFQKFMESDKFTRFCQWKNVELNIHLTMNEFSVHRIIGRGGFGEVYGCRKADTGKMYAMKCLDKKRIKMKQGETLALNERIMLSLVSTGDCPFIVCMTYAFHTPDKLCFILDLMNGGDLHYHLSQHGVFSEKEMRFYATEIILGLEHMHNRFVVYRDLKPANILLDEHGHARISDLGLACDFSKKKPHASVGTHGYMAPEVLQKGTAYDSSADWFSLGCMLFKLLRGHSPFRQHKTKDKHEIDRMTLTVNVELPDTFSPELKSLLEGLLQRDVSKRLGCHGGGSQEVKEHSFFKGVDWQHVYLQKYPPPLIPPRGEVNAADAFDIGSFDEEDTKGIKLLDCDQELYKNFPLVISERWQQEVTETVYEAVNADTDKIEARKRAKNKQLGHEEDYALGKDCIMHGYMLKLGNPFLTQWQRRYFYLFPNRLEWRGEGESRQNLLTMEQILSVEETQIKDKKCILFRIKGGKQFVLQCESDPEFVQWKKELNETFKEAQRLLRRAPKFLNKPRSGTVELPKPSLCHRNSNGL

[8] = biological target: Glycogen synthase kinase-3 alpha (Homo sapiens) (UniProt P49840); assay: Binding affinity to wild-type human full length GSK3A (M1 to S483 residues) expressed in bacterial expression system assessed as residual binding level at 10 uM by Kinomescan method relative to control
[9] = test system: Leucine-rich repeat serine/threonine-protein kinase 2 (Homo sapiens), Q5S007 [G2019S]; assay: Binding affinity to human partial length LRRK2 G2019S mutant (H970 to E2527 residues) expressed in mammalian expression system assessed as residual binding level at 10 uM by Kinomescan method relative to control
[10] = biological target: Leukocyte tyrosine kinase receptor (Homo sapiens) (UniProt P29376); assay: Binding affinity to wild-type human partial length LTK (P422 to S744 residues) expressed in bacterial expression system assessed as residual binding level at 10 uM by Kinomescan method relative to control
[11] = biological target: Dual specificity mitogen-activated protein kinase kinase 2 (Homo sapiens) (UniProt P36507); assay: Binding affinity to wild-type human full length MEK2 (M1 to V400 residues) expressed in mammalian expression system assessed as residual binding level at 10 uM by Kinomescan method relative to control
Sequence of Dual specificity mitogen-activated protein kinase kinase 2 (Homo sapiens) (P36507 whole entry, the tested form may be a part, canonical isoform): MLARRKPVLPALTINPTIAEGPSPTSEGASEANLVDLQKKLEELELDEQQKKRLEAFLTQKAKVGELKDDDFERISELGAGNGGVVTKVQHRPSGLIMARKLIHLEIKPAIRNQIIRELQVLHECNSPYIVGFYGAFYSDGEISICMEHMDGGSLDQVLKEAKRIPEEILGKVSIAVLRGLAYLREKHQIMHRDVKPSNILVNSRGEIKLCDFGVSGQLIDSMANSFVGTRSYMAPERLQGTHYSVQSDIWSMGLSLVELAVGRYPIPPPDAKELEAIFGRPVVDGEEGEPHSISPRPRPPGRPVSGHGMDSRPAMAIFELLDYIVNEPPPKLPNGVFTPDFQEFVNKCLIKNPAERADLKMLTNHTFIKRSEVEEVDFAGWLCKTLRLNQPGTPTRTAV

[12] = biological target: Phosphatidylinositol 4,5-bisphosphate 3-kinase catalytic subunit delta isoform (Homo sapiens) (UniProt O00329); assay: Binding affinity to wild-type human partial length PIK3CD (R108 to Q1044 residues) expressed in mammalian expression system assessed as residual binding level at 10 uM by Kinomescan method relative to control
[13] = biological target: Protein kinase C epsilon type (Homo sapiens) (UniProt Q02156); assay: Binding affinity to wild-type human partial length PRKCE (A378 to P737 residues) expressed in mammalian expression system assessed as residual binding level at 10 uM by Kinomescan method relative to control
[14] = biological target: Serine/threonine-protein kinase RIO1 (Homo sapiens) (UniProt Q9BRS2); assay: Binding affinity to wild-type human full length RIOK1 (M1 to K568 residues) expressed in bacterial expression system assessed as residual binding level at 10 uM by Kinomescan method relative to control
[15] = biological target: Ribosomal protein S6 kinase alpha-1 (Homo sapiens) (UniProt Q15418); assay: Binding affinity to wild-type human partial length C-terminal RSK1 kinase domain 2 (P360 to L681 residues) expressed in bacterial expression system assessed as residual binding level at 10 uM by Kinomescan method relative to control
Sequence of Ribosomal protein S6 kinase alpha-1 (Homo sapiens) (Q15418 whole entry, the tested form may be a part): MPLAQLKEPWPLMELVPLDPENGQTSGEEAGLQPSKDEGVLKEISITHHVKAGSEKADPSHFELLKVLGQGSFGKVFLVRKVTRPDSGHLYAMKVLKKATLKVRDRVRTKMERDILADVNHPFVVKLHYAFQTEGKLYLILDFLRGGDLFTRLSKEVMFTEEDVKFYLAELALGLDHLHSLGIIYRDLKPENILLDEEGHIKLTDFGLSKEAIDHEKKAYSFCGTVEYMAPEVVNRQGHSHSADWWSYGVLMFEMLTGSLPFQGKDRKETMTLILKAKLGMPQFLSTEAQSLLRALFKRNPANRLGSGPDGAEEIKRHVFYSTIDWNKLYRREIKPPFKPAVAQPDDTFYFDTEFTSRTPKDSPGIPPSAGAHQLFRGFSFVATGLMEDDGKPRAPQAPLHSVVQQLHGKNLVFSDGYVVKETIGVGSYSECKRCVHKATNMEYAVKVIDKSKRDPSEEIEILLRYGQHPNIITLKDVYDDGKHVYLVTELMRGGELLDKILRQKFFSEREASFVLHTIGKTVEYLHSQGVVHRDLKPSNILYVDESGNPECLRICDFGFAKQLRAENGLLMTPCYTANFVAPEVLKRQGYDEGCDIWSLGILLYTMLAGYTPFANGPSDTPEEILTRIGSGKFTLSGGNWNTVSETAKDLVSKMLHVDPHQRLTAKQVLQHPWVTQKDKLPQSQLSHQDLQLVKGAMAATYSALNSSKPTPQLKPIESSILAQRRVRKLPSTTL

[16] = biological target: Serine/threonine-protein kinase SIK2 (Homo sapiens) (UniProt Q9H0K1); assay: Binding affinity to wild-type human full length SIK2 (M1 to N926 residues) expressed in bacterial expression system assessed as residual binding level at 10 uM by Kinomescan method relative to control
[17] = biological target: Serine/threonine-protein kinase ULK1 (Homo sapiens) (UniProt O75385); assay: Binding affinity to wild-type human partial length ULK1 (M1 to T309 residues) expressed in mammalian expression system assessed as residual binding level at 10 uM by Kinomescan method relative to control
Sequence of Serine/threonine-protein kinase ULK1 (Homo sapiens) (O75385 whole entry, the tested form may be a part): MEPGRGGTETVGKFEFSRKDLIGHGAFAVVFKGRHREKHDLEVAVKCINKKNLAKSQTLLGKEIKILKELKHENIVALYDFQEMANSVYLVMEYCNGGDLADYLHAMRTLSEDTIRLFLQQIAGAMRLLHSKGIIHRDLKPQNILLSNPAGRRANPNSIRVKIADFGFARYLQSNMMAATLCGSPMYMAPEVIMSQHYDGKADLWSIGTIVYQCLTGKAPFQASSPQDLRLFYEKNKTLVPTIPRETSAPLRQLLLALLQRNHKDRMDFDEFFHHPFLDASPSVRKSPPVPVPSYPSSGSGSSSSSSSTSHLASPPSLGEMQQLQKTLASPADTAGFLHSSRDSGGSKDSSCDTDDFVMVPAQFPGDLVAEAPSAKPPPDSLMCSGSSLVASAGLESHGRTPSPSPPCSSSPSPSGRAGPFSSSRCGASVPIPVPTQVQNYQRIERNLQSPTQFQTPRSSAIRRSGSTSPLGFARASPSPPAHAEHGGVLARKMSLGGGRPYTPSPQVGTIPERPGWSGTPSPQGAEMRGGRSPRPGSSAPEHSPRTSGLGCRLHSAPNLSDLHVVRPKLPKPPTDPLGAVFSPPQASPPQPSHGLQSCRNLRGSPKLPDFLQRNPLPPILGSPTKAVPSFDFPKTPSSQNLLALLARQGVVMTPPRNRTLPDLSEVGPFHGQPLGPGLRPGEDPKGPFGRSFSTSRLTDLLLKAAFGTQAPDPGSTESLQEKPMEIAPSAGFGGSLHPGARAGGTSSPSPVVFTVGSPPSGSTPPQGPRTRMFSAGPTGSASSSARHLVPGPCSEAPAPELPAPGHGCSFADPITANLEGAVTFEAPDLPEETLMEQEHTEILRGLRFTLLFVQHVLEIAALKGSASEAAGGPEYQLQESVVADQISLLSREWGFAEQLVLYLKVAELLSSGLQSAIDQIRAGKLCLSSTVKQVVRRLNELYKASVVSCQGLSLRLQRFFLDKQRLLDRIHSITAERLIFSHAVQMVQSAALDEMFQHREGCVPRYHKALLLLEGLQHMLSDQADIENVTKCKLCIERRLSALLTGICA

SMILES: O=C(Nc1cc(-c2cn(CCNc3c4c(nc5ccccc35)CCCC4)nn2)ccn1)Nc1cccc2c1C1CCCCN1C2=O (racemic)
- Activity [1]: 13%
- Activity [2]: 15%
- Activity [3]: 2.3%
- Activity [4]: 3%
- Activity [5]: 87%
- Activity [6]: 100%
- Activity [7]: 100%
- Activity [8]: 0.3%
- Activity [9]: 24%
- Activity [10]: 100%
- Activity [11]: 11%
- Activity [12]: 100%
- Activity [13]: 100%
- Activity [14]: 5.2%
- Activity [15]: 53%
- Activity [16]: 36%
- Activity [17]: 38%
